≈ marks a conversion by molar mass, not a printed value. Where “and” joins values, the source holds several entries; their conditions need not be identical. Equal entries are not always repeated. Where two headings read alike, the source gives them in different places.
Tests used:
[1] = test system: S. aureus KC01 and MK01; experiment: MBC test (CLSI), non-MRSA S. aureus isolates
[2] = test system: S. pneumoniae strain D39; experiment: Micro-broth dilution time kill studies; assay type: cell-based, Streptococcus pneumoniae
Method: Negative dilution controls were subtracted from the median growth value to obtain a suitable indicator of overall bacterial production. The 96-well tray was incubated at 37° C. in 5% CO2 and read every 2 hrs for the first 12 hrs followed by final reads at 24 and 48 hrs at 600 nm.

[3] = test system: Streptococcus pneumoniae; experiment: Minimum inhibitory concentration assay (CLSI), Str. pneumoniae isolates; assay type: cell-based
Method: Minimum inhibitory concentration tests were performed according to CLSI Standards (CLSI 2008). […] The solutions were then serially diluted across the row, leaving 2 columns for positive and negative controls. A bacterial suspension was prepared by adding fresh colonies obtained from an overnight culture on Sheep Blood Agar (SBA) to a 9.1 g/L saline solution. This suspension was adjusted to a concentration of between 4×10^8 and 5×10^8 CFU/mL. Concentration of the suspension was determined by measuring optical density (OD) using a spectrophotometer at a wavelength of 600 nm where the correct concentration was determined to have an optical density of between 1.00 and 1.20. One milliliter of this suspension was added to 9 mL of saline before being added to all wells, excluding the negative control wells, in 10 μL volumes giving a final concentration of between 4×10^5 and 5×10^5 CFU/mL in each well. The tests were then incubated for 24 hours at 37° C. and then assessed both visually and using OD readings from a microplate reader at a wavelength of 600 nm. These tests were performed in duplicate but repeated if discrepancies were observed.
The minimum inhibitory concentration (MIC) was determined to be the lowest concentration of antibiotic that prevented growth of bacteria both visually and using OD readings. […]

[4] = test system: S. pneumoniae; experiment: MBC, pneumococcal isolates; assay type: cell-based, Streptococcus pneumoniae; conditions: isolate WCH16
Method: [Micro-broth dilutions and 96-well trays are prepared by the following method: 90 μL of 4% LHB: CAMHB is aliquotted into all wells using a multichannel pipette. 90 μl of working antimicrobial stocks were no serial diluted down the tray by a 1:2 dilution. Negative broth controls and dilution control were taken into account when planning the set up of a 96-well tray.] 10 μL of bacterial suspension was then added to the appropriate wells in the 96 well tray. Appropriate positive (no antimicrobial), negative (no antimicrobial or bacteria) and negative dilution (a serial dilution control of antimicrobial and broth) controls were included in each assay. […] The MBC was determined by a 99.95% inhibition of S. pneumoniae, taking into account the dilution factor. MICs and MBCs were determined in quadruplicate and the mode was taken as the representative value. The MIC50, MIC90 and MIC range and MBC50, MBC90 and MBC range were determined according to CLSI standards. The MIC50 and MIC90, or MBC50 and MBC90, are defined by the lowest concentrations which, when all the MICs and MBCs of the isolates are arranged from lowest to highest, inhibited the 50th and 90th percentile of the total amount of isolates, respectively.

[5] = cited from earlier work
[6] = test system: methicillin-resistant and methicillin-susceptible Staphylococcus aureus; experiment: Minimum bactericidal concentration, S. aureus clinical isolates
From the text: The MBC was defined as the lowest drug concentration at which 99.95% of the original inoculum was eliminated.

[7] = test system: E. coli ATCC 25922 spheroplasts; experiment: Activity against spheroplasts (colony forming units over 24 hours); assay type: cell-based, Escherichia coli
Method: E. coli ATCC 25922 was grown overnight on agar at 37° C. Two colonies from the overnight incubation were used to inoculate ˜20 ml of cation adjusted mueller hinton broth. Inoculated broth was incubated for 18 hours at 37° C. […] Formation of spheroplasts was checked using a phase contrast microscope.
Fifty microliters of DMSO only was added to the control test tube. Spheroplasts were incubated for 24 hours with 20 μl samples taken at 0, 2, 4, 6, 8 and 24 hours. Twenty microliter samples were serially diluted 1:10 and 10 ul samples of appropriate dilutions were spotted in triplicate onto brain heart infusion agar. Brain heart infusion agar was incubated at 37° C. for 48 hours and colonies were counted at 24 and 48 hours to determine the number of colony forming units.

[8] = test system: VRE isolates; experiment: MBC test (CLSI), VRE isolates; assay type: cell-based, Enterococcus spp.; set-up: key: M = many bacteria growing on the plate (too many to count)
Method: There was an obvious reduction in the number of bacteria with increasing concentration, but growth was present compared with no growth for S. aureus. […] Each MBC test was performed in duplicate.

Q: Which “MBC test: growth on Sheep Blood Agar” value ([1]; S. aureus KC01, 2 μg/ml) does the source give for `N=C(N/N=C/c1ccc(Cl)cc1)N/N=C/c1ccc(Cl)cc1` [NCL812, 1,2-bis[(E)-(4-chlorophenyl)methylideneamino]guanidine] here?
A: Its value is “+”.

Q: What about the “MBC test: growth on Sheep Blood Agar” value ([1]; S. aureus KC01, 4 μg/ml) of the same molecule?
A: Its value is 0 and +.

Q: And the “MBC test: growth on Sheep Blood Agar” value ([1]; S. aureus KC01, 8 μg/ml)?
A: The value was 0 and +.

Q: What about the “MBC test: growth on Sheep Blood Agar” value ([1]; S. aureus KC01, 16 μg/ml) of the same molecule?
A: The value was 0.

Q: What about the “MBC test: growth on Sheep Blood Agar” value ([1]; S. aureus KC01, 32 μg/ml) of the same molecule?
A: The value was 0.

Q: And the “MBC test: growth on Sheep Blood Agar” value ([1]; S. aureus KC01, 64 μg/ml)?
A: Its value is 0.

Q: And the “MBC test: growth on Sheep Blood Agar” value ([1]; S. aureus KC01, […])?
A: The value was 0.

Q: And the “MBC test: Number of Bacteria Growing after 24 hours per ml of sample” value ([1]; S. aureus MK01, 2 μg/ml)?
A: Its value is 5 CFU/ml.

Q: And the “MBC test: growth on Sheep Blood Agar” value ([1]; S. aureus MK01, 2 μg/ml)?
A: Its value is 0.

Q: And the “MBC test: growth on Sheep Blood Agar” value ([1]; S. aureus MK01, 4 μg/ml)?
A: Its value is 0.

Q: What about the “MBC test: growth on Sheep Blood Agar” value ([1]; S. aureus MK01, 8 μg/ml) of the same molecule?
A: The value was 0.

Q: What about the “MBC test: growth on Sheep Blood Agar” value ([1]; S. aureus MK01, 16 μg/ml) of the same molecule?
A: The value was 0 (N) and 0.

Q: And the “MBC test: growth on Sheep Blood Agar” value ([1]; S. aureus MK01, 32 μg/ml)?
A: Its value is 0 (N) and 0.

Q: What about the “MBC test: growth on Sheep Blood Agar” value ([1]; S. aureus MK01, 64 μg/ml) of the same molecule?
A: Its value is 0 (N) and 0.

Q: What about the “effect of choline chloride in the media on growth” value ([2]; 5% choline chloride, 48 hour, compared to positive and growth controls) of the same molecule?
A: The value was “no significant difference in growth”.

Q: What about the “concentrations resulting in no bacterial growth for 48 hrs” value ([2]; D39) of the same molecule?
A: Its value is at least 16 µg/mL.

Q: And the “sub-inhibitory concentrations (growth similar to unexposed controls over 48 hour)” value ([2]; D39)?
A: The value was at most 2 µg/mL.

Q: What about the “entered a log phase of growth at” value ([2]; D39 treated with ≦4 μg/ml NCL812) of the same molecule?
A: Its value is 6 hrs.

Q: What about the MIC50 [3] of the same molecule?
A: Its MIC50 is 4 µg/mL (≈ 12 µM).

Q: And the MIC90 [3]?
A: The MIC90 was 4 µg/mL (≈ 12 µM).

Q: And the MBC [4]?
A: The MBC was “autolysis”.

Q: And the solubility ([5]; PBS)?
A: Its solubility is “precipitation”.

Q: What about the solubility ([5]; water containing 4% DMSO, following initial dilution in 100% DMSO) of the same molecule?
A: The solubility was “complete solubility”.

Q: What about the MBC range [6] of the same molecule?
A: The MBC range was 4 to 16 µg/mL.

Q: And the “isolates with MBC equivalent to the MIC” value [6]?
A: The value was 83.33%.

Q: What about the “concentration with significant decrease in colony forming units over time” value [7] of the same molecule?
A: Its value is at least 32 µg/mL.

Q: And the “MBC test: bacteria growing after 24 hours per ml of sample” value ([8]; VRE 12c, 64 μg/ml)?
A: The value was “M”.

Q: What about the “MBC test: bacteria growing after 24 hours per ml of sample” value ([8]; VRE 12c, […]) of the same molecule?
A: The value was “M”.

Q: What about the “MBC test: bacteria growing after 24 hours per ml of sample” value ([8]; VRE 14t, […]) of the same molecule?
A: Its value is “M”.

Q: What about the “MBC test: bacteria growing after 24 hours per ml of sample” value ([8]; VRE 16c(dc), 64 μg/ml) of the same molecule?
A: Its value is “M”.

Q: And the “MBC test: bacteria growing after 24 hours per ml of sample” value ([8]; VRE 16c(dc), […])?
A: The value was “M”.

Q: And the “MBC test: bacteria growing after 24 hours per ml of sample” value ([8]; VRE 16c, 64 μg/ml)?
A: The value was “M”.

Q: What about the “MBC test: bacteria growing after 24 hours per ml of sample” value ([8]; VRE 16c, […]) of the same molecule?
A: Its value is “M”.

Q: And the “MBC test: bacteria growing after 24 hours per ml of sample” value ([8]; VRE 19t, […])?
A: Its value is “M”.

Q: And the “MBC test: bacteria growing after 24 hours per ml of sample” value ([8]; VRE 23c, 64 μg/ml)?
A: The value was “M”.

Q: And the “MBC test: bacteria growing after 24 hours per ml of sample” value ([8]; VRE 23c, […])?
A: Its value is “M”.

Q: And the “MBC test: bacteria growing after 24 hours per ml of sample” value ([8]; VRE 25c, 64 μg/ml)?
A: Its value is “M”.

Q: And the “MBC test: bacteria growing after 24 hours per ml of sample” value ([8]; VRE 25c, […])?
A: Its value is “M”.

Q: What about the “MBC test: bacteria growing after 24 hours per ml of sample” value ([8]; VRE 26c(dc), 64 μg/ml) of the same molecule?
A: Its value is “M”.

Q: And the “MBC test: bacteria growing after 24 hours per ml of sample” value ([8]; VRE 26c(dc), […])?
A: The value was “M”.
